The results in this text go back to patent US20160274123A1, “One-Photon and/or Two-Photon Fluorescent Probe for Sensing Hydrogen Sulfide, Imaging Method of Hydrogen Sulfide Using Same, and Manufacturing Method Thereof” (POSTECH ACADEMY-INDUSTRY FOUNDATION, priority 2013, published 2016).

Each structure is given as a SMILES string. “Also recorded” adds a separate entry of the source. A value given as a limit tells only on which side of the number the result lay.

The nature of data set [1]: Fluorescence change under hydrogen sulfide and biological sulfide conditions (selectivity). The following applies: Compound 10 μM; Na2S 100 μM, GSH 10 mM, Cys 200 μM, Hcy 50 μM; pH 7.4 HEPES buffer; excitation 375 nm, emission 510 nm. Here is the method: To confirm the hydrogen sulfide selectivity of Compound 2 under hydrogen sulfide and biological sulfide conditions, the fluorescence change of Compound 2 (10 μM) was observed under biological sulfide conditions (Na2S (100 μM), the same material as H2S), glutathione (GSH, 10 mM), cysteine (Cys, 200 μM), and homocysteine (Hcy, 50 μM) (using the same buffer as used in Example 1)). Here, an excitation wavelength was 375 nm, and a fluorescence emission wavelength was detected to be 510 nm.
That is, the fluorescence changes of Compounds 2, 3 and 4 (10 μM) were observed under the biological sulfide conditions (Na2S (100 μM, the same as H2S), glutathione (GSH, 10 mM), cysteine (Cys, 200 μM), homocysteine (Hcy, 50 μM)), a buffer used in the experiment was the same as used in Example 1, an excitation wavelength was 375 nm, and a fluorescence emission wavelength was detected to be 510 nm.

Data set [2] is described as follows: Fluorescence change on reaction with various types of biological substances. The note with it: Compound 10 μM; amino acids, lipoic acid, anions, H2O2 each 100 μM; about 30 minutes; pH 7.4 HEPES buffer. Here is the method:
To observe fluorescence changes according to reactions between various types of biological substances and Compound 2, Compound 2 (10 μM) was reacted with a biologically-active substance (an amino acid (Ala, Glu, Lys, or Met), lipoic acid, an anion (NO^2−, SO4^2−, S2O3^2−, SCN^−, or I^−), and active oxygen (H2O2). A buffer used in the experiment was the same as used in Example 1, and the concentration of each biologically-active substance was 100 μM. Each biologically-active substance was added, and after about 30 minutes, an excitation wavelength was 375 nm, and a fluorescence emission wavelength was detected to be 510 nm.

Data set [3] has as its system hydrogen sulfide (H2S) in each organ (the brain, kidney, liver, spleen or lung) of a mouse. The data set can be described thus: Mouse organ tissue imaging using two-photon fluorescence microscope. It counts as in vivo. The protocol: Tissue imaging per each organ of a Compound 2 treated mouse was performed using a two-photon fluorescence microscope. That is, the distribution of hydrogen sulfide (H2S) in each organ (the brain, kidney, liver, spleen or lung) of a mouse was confirmed using Compound 2. To this end, a set (1′) was prepared by injecting Compound 2 into the abdominal cavity of a live mouse and extracting an organ, and a set (2′) was prepared by extracting each organ of a mouse and immersing the organ in a solution of Compound 2. The mouse used in the experiment was a C57BL6 type (SAMTAKO Corp.), which is five weeks old. More particularly, for the set (1′), 20 μL of a 10 mM solution of Compound 2, which had been taken and diluted in 280 μL of a PBS (100 mM, pH 7.4) buffer, was injected into the abdominal cavity of a mouse twice a day for a total of 5 days, and then each organ was extracted. The extracted organ was frozen in dry ice for 5 minutes, crushed into smaller pieces with a hammer, and cut to a thickness of 16 μm using a section machine (Cryostat machine, Leica, CM3000 model). […] Subsequently, the resultant sample was washed three times with a PBS buffer, covered with a mount solution (Gel Mount, BIOMEDA), and then imaged using a two-photon fluorescence microscope, which is the same as used in Example 7. However, an excitation wavelength and laser power of the two-photon fluorescence microscope were 880 nm and 40 mW, respectively. Also, for the set (2′), first, each organ of a mouse was extracted and immersed in a solution (10 μM) of Compound 2 for 10 minutes, and then a sample prepared as described above was imaged by the same method used for the set (1′).

The test system of data set [4] is HeLa cells. The data set can be described thus: Cell imaging using one-photon and two-photon fluorescence microscopes. It counts as cell-based, human. The following applies: probe 10 μM. Here is the method:
To observe a fluorescence change according to the treatment with Compound 2 through cell imaging using one-photon and two-photon fluorescence microscopes, Compound 2 (10 μM) was treated with human cervical carcinoma cells (HeLa cells). The HeLa cells were cultured in a Dulbecco's modified eagles medium (DMEM, Hyclone) containing 10% fetal bovine serum (Hyclone) and penicillin-streptomycin (Hyclone) with 5% carbon dioxide at an ambient temperature of 37° C. to a cell density of about 20,000 cells/cm^2, and used in the experiment. The used one-photon fluorescence microscope is an LSM710 confocal microscope manufactured by Carl Ziess, and the two-photon fluorescence microscope is a Chameleon Ultra model having a Ti-sapphire laser, which is manufactured by Coherent. A lens used in the two-photon fluorescence microscope is an XLUMPLFNM, NA 1.0 model manufactured by Olympus, and a wavelength and laser power of the two-photon fluorescence microscope are 880 nm and 15 mW, respectively. […]

For data set [5], the system named is HeLa cells. The data set can be described thus: Cytotoxicity experiment by MTT method. It counts as cell-based, human. Here is the method:
To confirm the cytotoxicity of Compound 2 according to the present invention, a cytotoxicity experiment in HeLa cells was performed by an MTT method. That is, the Hela cells prepared by the same method as used in Example 7 were treated with Compound 2 at each concentration (0˜100 μM). In addition, to confirm the cytotoxicity, 25 μL of 3-(4,5-dimethldiazol-2-yl)-2, 5-diphenyltetrazolium bromide (MTT) having a concentration of 5 mg/mL was added. The cells were cultured at 37° C. for about 2 hours, treated with 100 μL of a solubilizing solution (50% dimethylformamide, 20% SDS, pH 7.4), and cultured at 37° C. for 24 hours, and then the absorbance was measured at 570 nm.
On the technique in general: Formazan colour is commonly taken as a measure of viable cells.

Data set [6] can be described thus: Fluorescence change of the probe on reaction with hydrogen sulfide in buffer. The note with it: Compound 10 μM. Here is the method:
A mechanism of a fluorescence turn-on phenomenon according to a reaction between Compound 2 and hydrogen sulfide is shown in FIG. 1a, an α-β unsaturated carbonyl group of Compound 2 reacted with hydrogen sulfide to induce a ring-shape in a chemical reaction.
Therefore, to observe the fluorescence change of Compound 2 due to hydrogen sulfide, a fluorescence graph of Compound 2 was measured in a buffer (pH 7.4, 10 mM HEPES buffer). For fluorescence spectra analysis, a photon technical international fluorescence system manufactured by PTI was used, as a cell providing Compound 2 to each instrument, a standard quartz cell having a thickness of 1 cm was used. First, Compound 2 (10 μM) was treated with hydrogen sulfide at a concentration of 0 to 50 μM, and after 5 minutes, a fluorescence graph was checked.
To observe the fluorescence change of Compound 2 over time due to hydrogen sulfide, Compound 2 (10 μM) was treated with 100 μM of hydrogen sulfide (using the same buffer as used in Example 1), and a graph of fluorescence over time was analyzed. When an excitation wavelength was 375 nm, a fluorescence emission wavelength was detected to be 510 nm.
To observe the hydrogen sulfide sensitivity of Compound 2 based on fluorescence change, an amount of Na2S (the same as H2S) in Compound 2 (10 μM) was reduced. A buffer used in the experiment was the same as used in Example 1, 50 nM of Na2S was added, an excitation wavelength was 375 nm, and a fluorescence emission wavelength was detected to be 510 nm.
To observe fluorescence changes of Compound 2 due to hydrogen sulfide under various acidity (pH) conditions, the fluorescence changes were examined when Compound 2 (10 μM) bound to H2S under various acidity conditions (pH 5˜9). In other words, 100 μM of H2S reacted to Compound 2 at pH 5, 6, 7, 8, or 9, and then 5 minutes later, a fluorescence intensity was measured. Here, an excitation wavelength was 375 nm, and a fluorescence emission wavelength was detected to be 510 nm.

[7] abbreviates: 100 μM hydrogen sulfide, pH 7.4 10 mM HEPES buffer, excitation 375 nm, emission 510 nm.

On to `COc1cccc(C=O)c1/C=C/C(=O)c1ccc2cc(NCCO)ccc2c1` [Compound 3, (E)-2-(3-(6-(2-hydroxyethylamino)naphthalene-2-yl)-3-oxoprop-1-enyl)-3-methoxybenzaldehyde], for which the “selectivity to hydrogen sulfide under biological sulfide conditions” value in data set [1] was “relatively lower selectivity to hydrogen sulfide than Compound 2”.

For the compound `O=Cc1ccccc1/C=C/C(=O)c1ccc2cc(NCCO)ccc2c1` [Compound 4, (E)-2-(3-(6-(2-hydroxyethylamino)naphthalene-2-yl)-3-oxoprop-1-enyl)benzaldehyde], the “selectivity to hydrogen sulfide under biological sulfide conditions” value in data set [1] is “did not have selectivity to hydrogen sulfide”.

In the case of `COc1cc(C=O)c(/C=C/C(=O)c2ccc3cc(NCCO)ccc3c2)c(OC)c1` [Compound 2, (E)-2-(3-(6-(2-hydroxyethylamino)naphthalene-2-yl)-3-oxoprop-1-enyl)-3,5-dimethoxybenzaldehyde], the “selectivity to hydrogen sulfide under biological sulfide conditions” value in data set [1] was “sufficient fluorescence turn-on phenomenon only in a reaction with Na2S; also recorded: high selectivity to hydrogen sulfide”. For the same compound, the “selective fluorescence turn-on versus various biologically-active substances” value in data set [2] was “only reacts with hydrogen sulfide (H2S)”. For the same compound, in data set [3] (set (1′): C57BL6 mouse, injected into the abdominal cavity twice a day for 5 days, organs extracted), the “two-photon fluorescence signal in organs after abdominal injection” value is “signals are increased in the brain, kidney, liver, spleen and lung”. Further, the “permeation into organs after abdominal injection” value in data set [3] (set (1′): living C57BL6 mouse, abdominal injection) was “permeated throughout the organ, particularly, into the brain”. The “two-photon fluorescence change in extracted organs immersed in probe solution” value in data set [3] (set (2′): extracted mouse organs immersed in 10 μM solution for 10 minutes) is “strong fluorescence changes are shown in the brain, liver and lung”. The permeation into cells result in the data set with HeLa cells [4] is “easily permeates into cells”. Also, the “fluorescence change in cells treated only with the probe” value in the data set with HeLa cells [4] (cultured 30 minutes, set (2)) is “showed an increase in fluorescence”. For the same compound, the cytotoxicity result with HeLa cells [5] (0˜100 μM) is listed as “not toxic to the cells”. In addition, the cell viability in the data set on HeLa cells [5] (concentrations until 100 μM) is at least 95%. Also, the “signal to noise ratio of fluorescence turn-on” value in data set [6] (50 nM Na2S, about 5 minutes after addition, pH 7.4 HEPES buffer) is reported as at least 3. Moreover, the “fluorescence change due to hydrogen sulfide under various acidity (pH) conditions” value in data set [6] (100 μM H2S, pH 5, 6, 7, 8 or 9, 5 minutes) is “the sharpest increase in fluorescence was shown at neutral pH”. In data set [6] (setting [7]), the “time to approach the maximum fluorescence level” value was at most 5 min and the “time to saturation of fluorescence emission” value was “about 10 minutes”. Moreover, the “fluorescence change with increasing concentration of hydrogen sulfide” value in data set [6] (hydrogen sulfide 0 to 50 μM, after 5 minutes, pH 7.4 10 mM HEPES buffer, excitation 375 nm, emission 510 nm) is “fluorescence intensity was increased”. For the same compound, in data set [6] (pH 7.4 HEPES buffer, excitation 375 nm, emission 510 nm), the “low concentration of Na2S (H2S) at which fluorescence can be observed (sensitivity)” value worked out at 50 nM.

As a reminder, the cell viability is a read-out of living cells in per cent, often relative to untreated cells. The low end stands for more harm to the cells, the high end for less harm to the cells.
